Assay results from US9353072B2, “Antimicrobial substituted thiazoles and methods of use” (Purdue Research Foundation, priority 2012, dated 2016).
Converted amounts (≈) assume the structure as drawn. Where two headings read alike, the source gives them in different places. Values belong to the molecule of their own block, whether it stands above or below them.

Legend:
MRSA ATCC 43300 = experiment: MIC/MBC broth microdilution, MRSA ATCC 43300; type: cell-based, Staphylococcus aureus
Method: (§1) Determination of minimum inhibitory concentration (MIC). The MICs of the lead thiazole compound (compound 1a) and nine derivatives tested against all 18 MRSA strains were determined, in triplicate samples, using the broth microdilution method in accordance with the recommendations contained in the CLSI guidelines.

MRSA NRS384 (USA300) = experiment: MIC/MBC broth microdilution, NRS384 (USA300); type: cell-based; details: Staphylococcus aureus; Table 5; MRSA NRS384 (USA300); 128 μM down to 1.0 μM; 37° C., 19 hours; read-out: Minimum Inhibitory Concentration
Method: as §1

[1] = Staphylococcus aureus, Table 6, MRSA ATCC 43300, 128 μM down to 1.0 μM, 20 hours, read-out: MIC
[2] = Staphylococcus aureus, Table 4, MRSA ATCC 43300, 64 μM down to 0.5 μM, 37° C., 19 hours, read-out: Minimum Inhibitory Concentration

Structure (SMILES): CCCCc1ccc(-c2nc(C)c(/C(C)=N/NC(=N)N/N=C(\C)c3sc(-c4ccc(CCCC)cc4)nc3C)s2)cc1 [Compound M1]
MIC (MRSA ATCC 43300; [1]): > 128 µM

Structure (SMILES): C/C(=N\NC(=N)N/N=C(\C)c1sc(-c2ccc(N)cc2)nc1C)c1sc(-c2ccc(N)cc2)nc1C [Compound M3]
MIC (MRSA ATCC 43300; [1]): > 128 µM

Structure (SMILES): CC(=O)c1sc(-c2ccc(-c3ccc(O)cc3)cc2)nc1C [Compound M4, 1-(2-(4′-hydroxy-[1,1′-biphenyl]-4-yl)-4-methylthiazol-5-yl)ethanone]
MIC (MRSA ATCC 43300; [1]): > 128 µM

Structure (SMILES): C/C(=N/NC(=N)N)c1sc(-c2ccc(-c3ccc(O)cc3)cc2)nc1C [Compound M5, (Z)-2-(1-(2-(4′-hydroxy-[1,1′-biphenyl]-4-yl)-4-methylthiazol-5-yl)ethylidene)hydrazinecarboximidamide]
MIC (MRSA ATCC 43300; [1]): > 128 µM

Structure (SMILES): CC(=O)c1sc(-c2ccc(-c3cc(C)cc(C)c3)cc2)nc1C [Compound M7, 1-(2-(3′,5′-dimethyl-[1,1′-biphenyl]-4-yl)-4-methylthiazol-5-yl)ethanone]
MIC (MRSA ATCC 43300; [1]): > 128 µM

Structure (SMILES): CC(=O)c1sc(-c2cccc(F)c2)nc1C [Compound M15, 1-(2-(3-fluorophenyl)-4-methylthiazol-5-yl)ethanone]
MIC (MRSA ATCC 43300; Staphylococcus aureus, 20 h): > 128 µM

Structure (SMILES): CCCCCCCC#Cc1ccc(-c2nc(C)c(/C(C)=N\NC(=N)N/N=C(\C)c3sc(-c4ccc(C#CCCCCCCC)cc4)nc3C)s2)cc1 [Compound M18]
MIC (MRSA ATCC 43300; Staphylococcus aureus, 20 h): > 128 µM

Structure (SMILES): COc1cc(OC)cc(-c2ccc(-c3nc(C)c(C(C)=O)s3)cc2)c1 [Compound M19, 1-(2-(3′,5′-dimethoxy-[1,1′-biphenyl]-4-yl)-4-methylthiazol-5-yl)ethanone]
MIC (MRSA ATCC 43300; Staphylococcus aureus, 20 h): > 128 µM

Structure (SMILES): [H]/N=C(/N)NN=C(C)c1sc(-c2cc[nH]n2)nc1C [Compound M20]
MIC (MRSA ATCC 43300; Table 6, MRSA ATCC 43300, 128 μM down to 1.0 μM, 20 hours, read-out: MIC): 8 µM (≈ 2.11 µg/mL)

Structure (SMILES): CC(=O)c1sc(-c2ccc(-c3ccc(-c4nc(C)c(C(C)=O)s4)cc3)cc2)nc1C [Compound M21, 1,1′-(2,2′-([1,1′-Biphenyl]-4,4′-diyl)bis(4-methylthiazole-5,2-diyl))diethanone]
MIC (MRSA ATCC 43300; [1]): > 128 µM

Structure (SMILES): CC(=O)c1sc(-c2cc[nH]n2)nc1C [Compound M22, 1-(4-Methyl-2-(1H-pyrazol-3-yl)thiazol-5-yl)ethanone]
MIC (MRSA ATCC 43300; [1]): > 128 µM

Structure (SMILES): CC(=O)c1sc(-c2ccc(-c3ccc(-c4ccccc4)cc3)cc2)nc1C [Compound M23, 1-(2-([1,1′:4′,1″-Terphenyl]-4-yl)-4-methylthiazol-5-yl)ethanone]
MIC (MRSA ATCC 43300; [1]): > 128 µM

Structure (SMILES): C/C(=N/NC(=N)N)c1sc(-c2cc[nH]n2)nc1C [Compound M24, (Z)-2-(1-(4-methyl-2-(1H-pyrazol-3-yl)thiazol-5-yl)ethylidene)hydrazinecarboximidamide]
MIC (MRSA ATCC 43300; [1]): > 128 µM

Other lines, results leading:

MIC (MRSA ATCC 43300; [2]): > 64 µM
Structure (SMILES): CCCCc1ccc(-c2nc(C)c(-c3nnn[nH]3)s2)cc1 [Compound R2, 2-(4-butylphenyl)-4-methyl-5-(1H-tetrazol-5-yl)thiazole]

MIC (MRSA ATCC 43300; [2]): > 64 µM
Structure (SMILES): CCCCc1ccc(-c2nc(C)c(C(=O)NNC(=O)c3sc(-c4ccc(CCCC)cc4)nc3C)s2)cc1 [Compound R3, 2-(4-butylphenyl)-N′-(2-(4-butylphenyl)-4-methylthiazole-5-carbonyl)-4-methylthiazole-5-carbohydrazide]

MIC (MRSA ATCC 43300; [2]): > 64 µM
Structure (SMILES): CCCCc1ccc(-c2nc(C)c(C(=O)NNC(=N)N)s2)cc1 [Compound R5, 2-(2-(4-butylphenyl)-4-methylthiazole-5-carbonyl)hydrazinecarboximidamide]

MIC (MRSA ATCC 43300; [2]): > 64 µM
Structure (SMILES): CCCCc1ccc(-c2nc(C)c(C(N)=O)s2)cc1 [Compound R6, 2-(4-butylphenyl)-4-methylthiazole-5-carboxamide]

MIC (MRSA NRS384 (USA300)): 128 µM (≈ 44.6 µg/mL)
Structure (SMILES): CCCCc1ccc(-c2nc(C)c(C(=O)NC[C@@H](O)CO)s2)cc1 [Compound R8, (R)-2-(4-butylphenyl)-N-(2,3-dihydroxypropyl)-4-methylthiazole-5-carboxamide]

MIC (MRSA NRS384 (USA300)): 128 µM (≈ 44.6 µg/mL)
Structure (SMILES): CCCCc1ccc(-c2nc(C)c(C(=O)NC[C@H](O)CO)s2)cc1 [Compound R9, (S)-2-(4-butylphenyl)-N-(2,3-dihydroxypropyl)-4-methylthiazole-5-carboxamide]

MIC (MRSA NRS384 (USA300)): 128 µM (≈ 44.2 µg/mL)
Structure (SMILES): CCCCc1ccc(-c2nc(C)c(C(=O)NCCN(C)C)s2)cc1 [Compound R10, 2-(4-butylphenyl)-N-(2-(dimethylamino)ethyl)-4-methylthiazole-5-carboxamide]
